The experiment has as its target Dihydroorotate dehydrogenase (quinone), mitochondrial (Homo sapiens, UniProt Q02127). As to the kind of experiment: Enzyme Assay: The DHODH activity assay is a coupled enzyme assay in which oxidation of DHO and subsequent reduction of ubiquinone are stoichiometrically equivalent to the reduction of DCIP ([…]). The reduction of DCIP is accompanied by a loss of absorbance at 610 nm.Reagents Used:L-Dihydroorotic acid, Sigma, D7128, 2,6-Dichloroindophenol sodium salt hydrate, sigma, D1878 Dimethyl sulfoxide (DMSO), spectroscopic grade purchased from Spectrochem, cat no. 0704209, B. no.--3183650 Decylubiquinone, Sigma, D7911Preparation of Solutions/Reagents:Buffer Preparation: 50 mM tris HCl, 150 mM KCl, and pH 8.0, 0.8% triton.L-Dihydroorotic acid stock solution of 20 mM in buffer2,6-Dichloroindophenol Sodium salt hydrate stock solution of 20 mM in bufferDecylubiquinone stock solution of 20 mM in bufferDMSO used as vehicleProcedure:5 µL of Dimethyl sulfoxide or a compound of formula I in DMSO solution was added to the wells of a 96 well plate. Compounds of formula I were measured at 10 µM.

Chain of Dihydroorotate dehydrogenase (quinone), mitochondrial (Q02127 whole entry): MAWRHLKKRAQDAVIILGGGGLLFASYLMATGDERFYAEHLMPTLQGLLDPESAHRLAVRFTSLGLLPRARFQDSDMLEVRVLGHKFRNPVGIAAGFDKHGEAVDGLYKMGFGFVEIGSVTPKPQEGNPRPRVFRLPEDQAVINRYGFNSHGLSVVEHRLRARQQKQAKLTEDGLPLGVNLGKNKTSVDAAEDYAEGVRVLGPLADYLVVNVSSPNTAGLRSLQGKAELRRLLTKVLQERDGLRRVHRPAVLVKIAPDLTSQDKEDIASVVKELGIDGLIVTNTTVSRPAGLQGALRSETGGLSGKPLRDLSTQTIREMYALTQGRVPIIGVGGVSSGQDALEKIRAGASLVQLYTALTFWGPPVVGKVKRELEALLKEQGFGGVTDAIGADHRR

As for `Cc1cc(C(=O)O)c2nc(C#Cc3ccccc3)[nH]c2c1`, the half-inhibitory concentration (IC50) was 11.4 µM.

The term IC50 denotes the midpoint of a concentration-inhibition curve.
